Structures can show the parent of a compound that is named as a salt. Where two headings read alike, the source gives them in different places.
Experiments:
[1] = target: T1, SARS-CoV-2 PLpro (nsp3 1564–1878) (Severe acute respiratory syndrome coronavirus 2, UniProt P0DTD1); experiment: biochemical; design: FRET-quenched peptide (Pro3) cleavage by PLpro, 10 min pre-incubation, slope over 20 min, normalised to no-compound control; conditions: low concentration screen, read-out: % of control remaining
[2] = target: T1, SARS-CoV-2 PLpro (nsp3 1564–1878); experiment: biochemical; design: FRET-quenched peptide (Pro3) cleavage by PLpro, 10 min pre-incubation, slope over 20 min, normalised to no-compound control; conditions: high concentration screen, read-out: % of control remaining

O=C(c1ccc(F)cc1)C1CCN(CCn2c(=O)[nH]c3ccccc3c2=O)CC1 [Ketanserin (tartrate)]
remaining activity at 1.25 µM ([1]; Well no.=6519): 100% | remaining activity at 3.75 µM ([2]; Well no.=6519): 103%

O=C(c1ccc(F)cc1)C1CCN(CCn2c(=O)[nH]c3ccccc3c2=O)CC1 [Ketanserin tartrate]
remaining activity at 1.25 µM ([1]; Well no.=1515): 93.9% | remaining activity at 3.75 µM ([2]; Well no.=1515): 95.4%

O=C(c1ccc(F)cc1)C1CCN(CCn2c(=O)[nH]c3ccccc3c2=O)CC1 [Ketanserin]
remaining activity at 1.25 µM ([1]; Well no.=2106): 94.1% | remaining activity at 1.25 µM ([1]; Well no.=6859): 101% | remaining activity at 3.75 µM ([2]; Well no.=2106): 95.2% | remaining activity at 3.75 µM ([2]; Well no.=6859): 99%

CC1(C)C2CCC1(C(=O)O)C(=O)C2 (stereo not shown) [Ketopinic acid]
remaining activity at 1.25 µM ([1]; Well no.=3353): 92.9% | remaining activity at 3.75 µM ([2]; Well no.=3353): 96.9%

O=C(c1ccccc1)c1ccc2n1CCC2C(=O)O (stereo not shown) [Ketorolac tris salt]
remaining activity at 1.25 µM ([1]; Well no.=925): 108% | remaining activity at 3.75 µM ([2]; Well no.=925): 103%

CN1CCC(=C2c3ccccc3CC(=O)c3sccc32)CC1 [Ketotifen (fumarate)]
remaining activity at 1.25 µM ([1]; Well no.=7421): 100% | remaining activity at 3.75 µM ([2]; Well no.=7421): 97%

CN1CCC(=C2c3ccccc3CC(=O)c3sccc32)CC1 [Ketotifen fumarate]
remaining activity at 1.25 µM ([1]; Well no.=1069): 101% | remaining activity at 3.75 µM ([2]; Well no.=1069): 95.3%

CN1CCC(=C2c3ccccc3CC(=O)c3sccc32)CC1 [Ketotifen]
remaining activity at 1.25 µM ([1]; Well no.=2056): 108% | remaining activity at 3.75 µM ([2]; Well no.=2056): 109%

N#CCCCSC(=N)N [Kevetrin (hydrochloride)]
remaining activity at 1.25 µM ([1]; Well no.=6250): 103% | remaining activity at 3.75 µM ([2]; Well no.=6250): 103%

COc1c2occc2c(OC)c2c(=O)cc(C)oc12 [Khellin]
remaining activity at 1.25 µM ([1]; Well no.=3436): 92.2% | remaining activity at 3.75 µM ([2]; Well no.=3436): 94.1%

COC(=O)CCSCc1ccc(-c2onc(C)c2NC(=O)OC(C)c2ccccc2Cl)cc1 (stereo not shown) [Ki16198]
remaining activity at 1.25 µM ([1]; Well no.=5219): 89.4% | remaining activity at 3.75 µM ([2]; Well no.=5219): 96.1%

Cc1noc(-c2ccc(CSCCC(=O)O)cc2)c1NC(=O)OC(C)c1ccccc1Cl (stereo not shown) [Ki16425]
remaining activity at 1.25 µM ([1]; Well no.=7955): 95.2% | remaining activity at 3.75 µM ([2]; Well no.=7955): 96.5%

COc1cc(Oc2ccnc3cc(OC)c(OC)cc23)ccc1NC(=O)NC(C)c1nccs1 (stereo not shown) [Ki20227]
remaining activity at 1.25 µM ([1]; Well no.=2935): 98.2% | remaining activity at 3.75 µM ([2]; Well no.=2935): 102%

Cc1cc(/C=N/NC(=O)c2cc(Br)c(O)c(Br)c2)c(C)n1-c1cccc([N+](=O)[O-])c1 [Kinesore]
remaining activity at 1.25 µM ([1]; Well no.=7784): 93.8% | remaining activity at 3.75 µM ([2]; Well no.=7784): 91.7%

OC[C@H]1O[C@@H](n2cnc3c(NCc4ccco4)ncnc32)[C@H](O)[C@@H]1O [Kinetin riboside]
remaining activity at 1.25 µM ([1]; Well no.=6632): 91.8% | remaining activity at 3.75 µM ([2]; Well no.=6632): 96.7%

c1coc(CNc2ncnc3[nH]cnc23)c1 [Kinetin]
remaining activity at 1.25 µM ([1]; Well no.=3358): 95.6% | remaining activity at 3.75 µM ([2]; Well no.=3358): 97.3%

Cc1ccc(NC(=S)NNc2c([N+](=O)[O-])cc(C(F)(F)F)cc2[N+](=O)[O-])cc1Cl [Kobe0065]
remaining activity at 1.25 µM ([1]; Well no.=7436): 103% | remaining activity at 3.75 µM ([2]; Well no.=7436): 106%

O=C(O)c1cc(=O)c2ccccc2[nH]1 [Kynurenic acid]
remaining activity at 1.25 µM ([1]; Well no.=1117): 97.8% | remaining activity at 1.25 µM ([1]; Well no.=7403): 99.6% | remaining activity at 3.75 µM ([2]; Well no.=1117): 99.5% | remaining activity at 3.75 µM ([2]; Well no.=7403): 99.4%

N[C@@H](CC(=O)O)C(=O)O [L -Aspartic acid hemimagnesium salt hydrate]
remaining activity at 1.25 µM ([1]; Well no.=5897): 103% | remaining activity at 3.75 µM ([2]; Well no.=5897): 105%

NC[C@@H](O)c1ccc(O)c(O)c1 [L(-)-Norepinephrine bitartrate]
remaining activity at 1.25 µM ([1]; Well no.=58): 102% | remaining activity at 3.75 µM ([2]; Well no.=58): 99.2%

N[C@@H](CCCC(=O)O)C(=O)O [L-2-aminoadipic acid]
remaining activity at 1.25 µM ([1]; Well no.=52): 97.1% | remaining activity at 3.75 µM ([2]; Well no.=52): 97.4%

COC(=O)[C@@H](N)Cc1ccc(O)c(O)c1 [L-3,4-Dihydroxyphenylalanine methyl ester hydrochloride]
remaining activity at 1.25 µM ([1]; Well no.=541): 103% | remaining activity at 3.75 µM ([2]; Well no.=541): 103%

N[C@@H](Cc1ccc(O)c(O)c1)C(=O)O [L-3,4-Dihydroxyphenylalanine]
remaining activity at 1.25 µM ([1]; Well no.=634): 101% | remaining activity at 3.75 µM ([2]; Well no.=634): 105%

N[C@@H](Cc1c[nH]c2ccc(O)cc12)C(=O)O [L-5-Hydroxytryptophan]
remaining activity at 1.25 µM ([1]; Well no.=7409): 99.9% | remaining activity at 3.75 µM ([2]; Well no.=7409): 104%

c1ccc(CN2CCC3(CCCc4ccccc43)CC2)cc1 [L-687,384 hydrochloride]
remaining activity at 1.25 µM ([1]; Well no.=1123): 96.4% | remaining activity at 3.75 µM ([2]; Well no.=1123): 97.2%

Ic1ccccc1CN[C@@H]1C2CCN(CC2)[C@@H]1C(c1ccccc1)c1ccccc1 [L-703,606 oxalate]
remaining activity at 1.25 µM ([1]; Well no.=964): 96.7% | remaining activity at 3.75 µM ([2]; Well no.=964): 96%

FC(F)(F)c1cc(CO[C@H]2CCCN[C@H]2c2ccccc2)cc(C(F)(F)F)c1 [L-733,060 hydrochloride]
remaining activity at 1.25 µM ([1]; Well no.=918): 99.8% | remaining activity at 3.75 µM ([2]; Well no.=918): 103%

Clc1ccc(N2CCN(Cc3c[nH]c4ncccc34)CC2)cc1 [L-745,870 hydrochloride]
remaining activity at 1.25 µM ([1]; Well no.=1108): 92.3% | remaining activity at 3.75 µM ([2]; Well no.=1108): 95.9%

Ic1ccc(N2CCN(Cc3c[nH]c4ncccc34)CC2)cc1 [L-750,667 trihydrochloride]
remaining activity at 1.25 µM ([1]; Well no.=774): 102% | remaining activity at 3.75 µM ([2]; Well no.=774): 106%

COc1ccc(Br)cc1S(=O)(=O)NC(=O)/C=C/c1ccccc1Cc1ccc2ccccc2c1 [L-798106]
remaining activity at 1.25 µM ([1]; Well no.=5661): 91.7% | remaining activity at 3.75 µM ([2]; Well no.=5661): 95%

C[C@H](N)C(=O)O [L-Alanine]
remaining activity at 1.25 µM ([1]; Well no.=7749): 95.2% | remaining activity at 3.75 µM ([2]; Well no.=7749): 97.6%

OC[C@H](O)C(O)[C@@H](O)CO [L-Arabinitol]
remaining activity at 1.25 µM ([1]; Well no.=6789): 93.2% | remaining activity at 3.75 µM ([2]; Well no.=6789): 93.7%

N=C(N)NCCC[C@H](N)C(=O)O [L-Arginine HCl]
remaining activity at 1.25 µM ([1]; Well no.=4987): 100% | remaining activity at 3.75 µM ([2]; Well no.=4987): 100%

N=C(N)NCCC[C@H](N)C(=O)O [L-Arginine]
remaining activity at 1.25 µM ([1]; Well no.=351): 97.9% | remaining activity at 1.25 µM ([1]; Well no.=7205): 102% | remaining activity at 3.75 µM ([2]; Well no.=351): 98.7% | remaining activity at 3.75 µM ([2]; Well no.=7205): 99.2%

NC(=O)C[C@H](N)C(=O)O [L-Asparagine]
remaining activity at 1.25 µM ([1]; Well no.=7741): 106% | remaining activity at 3.75 µM ([2]; Well no.=7741): 108%

N[C@@H](CC(=O)O)C(=O)O [L-Aspartic acid]
remaining activity at 1.25 µM ([1]; Well no.=248): 96.2% | remaining activity at 3.75 µM ([2]; Well no.=248): 97.3% | remaining activity at 3.75 µM ([2]; Well no.=7683): 106%

Reference: PMC8286840, “Identifying SARS-CoV-2 antiviral compounds by screening for small molecule inhibitors of Nsp3 papain-like protease” (Biochemical Journal, 2021)
